Laboratory results reported in publication PMC11585590 (Nature Communications, 2024).
Entries after “also recorded” stand apart in the source; their conditions may differ. Peptide text beside a SMILES is read from it. * marks the point of attachment. Cbz = O=C(OCc1ccccc1)*

Tests used:
WDR5 [1] = biological target: WDR5 (Homo sapiens, UniProt P61964); assay: Western blot of WDR5 in MV4-11 cells, 1.5 μM PROTAC, 24 h; format: cell-based
endogenous WDR5 = endogenous WDR5 (Homo sapiens, UniProt P61964); assay: Endogenous WDR5 degradation assay using ProteinSimple's Jess, 24 h; format: cell-based; details: for Dmax: MV4-11, read-out: Dmax of endogenous WDR5 degradation, parental MV4-11 cells, 24 h; for DC50: read-out: EC50 of endogenous WDR5 degradation
[2] = biological target: DCAF1-PROTAC-WDR5 ternary complex (Homo sapiens, UniProt P61964+Q9Y4B6); assay: SPR ternary complex formation: PROTAC with 0.25 µM WDR5 on immobilized DCAF1; format: binding; details: WDR5 0.25 µM
HiBiT-tagged WDR5 [3] = biological target: T1, HiBiT-tagged WDR5 (Homo sapiens, UniProt P61964+Q9Y4B6); assay: Exogenous HiBiT WDR5 degradation assay, 24 h; format: cell-based; details: for Dmax: MV4-11, read-out: Dmax of exogenous HiBiT-WDR5 degradation, MV4-11 cells expressing HiBiT-tagged WDR5, 24 h; for Dmax of exogenous HiBiT-WDR5 degradation: MV4-11 cells expressing HiBiT-tagged WDR5, 24 h
DCAF1 = DCAF1 (Homo sapiens, UniProt Q9Y4B6); assay: SPR ternary complex format: PROTAC alone on immobilized DCAF1; format: binding; details: for Rmax: PROTAC alone, absence of WDR5; for koff: read-out: koff (1/s); for kon: read-out: kon (1/Ms)
HiBiT-tagged WDR5 [4] = biological target: T1, HiBiT-tagged WDR5; assay: Proteasome dependence: HiBiT-WDR5 level after 5 h with PROTAC 4 and/or MG132; format: cell-based; details: co-treatment with PROTAC 4 at 1.5 µM
[5] = test system: MV4-11 cells expressing HiBiT WDR5; assay: ATPlite viability of MV4-11 cells expressing HiBiT WDR5, 24 h; format: cell-based; details: 2 nM to 10 μM
WDR5 [6] = details: highest concentration of 7.5 µM, no hook effect; cited from earlier work

T1 sequence (Q9Y4B6 whole entry, one chain of several): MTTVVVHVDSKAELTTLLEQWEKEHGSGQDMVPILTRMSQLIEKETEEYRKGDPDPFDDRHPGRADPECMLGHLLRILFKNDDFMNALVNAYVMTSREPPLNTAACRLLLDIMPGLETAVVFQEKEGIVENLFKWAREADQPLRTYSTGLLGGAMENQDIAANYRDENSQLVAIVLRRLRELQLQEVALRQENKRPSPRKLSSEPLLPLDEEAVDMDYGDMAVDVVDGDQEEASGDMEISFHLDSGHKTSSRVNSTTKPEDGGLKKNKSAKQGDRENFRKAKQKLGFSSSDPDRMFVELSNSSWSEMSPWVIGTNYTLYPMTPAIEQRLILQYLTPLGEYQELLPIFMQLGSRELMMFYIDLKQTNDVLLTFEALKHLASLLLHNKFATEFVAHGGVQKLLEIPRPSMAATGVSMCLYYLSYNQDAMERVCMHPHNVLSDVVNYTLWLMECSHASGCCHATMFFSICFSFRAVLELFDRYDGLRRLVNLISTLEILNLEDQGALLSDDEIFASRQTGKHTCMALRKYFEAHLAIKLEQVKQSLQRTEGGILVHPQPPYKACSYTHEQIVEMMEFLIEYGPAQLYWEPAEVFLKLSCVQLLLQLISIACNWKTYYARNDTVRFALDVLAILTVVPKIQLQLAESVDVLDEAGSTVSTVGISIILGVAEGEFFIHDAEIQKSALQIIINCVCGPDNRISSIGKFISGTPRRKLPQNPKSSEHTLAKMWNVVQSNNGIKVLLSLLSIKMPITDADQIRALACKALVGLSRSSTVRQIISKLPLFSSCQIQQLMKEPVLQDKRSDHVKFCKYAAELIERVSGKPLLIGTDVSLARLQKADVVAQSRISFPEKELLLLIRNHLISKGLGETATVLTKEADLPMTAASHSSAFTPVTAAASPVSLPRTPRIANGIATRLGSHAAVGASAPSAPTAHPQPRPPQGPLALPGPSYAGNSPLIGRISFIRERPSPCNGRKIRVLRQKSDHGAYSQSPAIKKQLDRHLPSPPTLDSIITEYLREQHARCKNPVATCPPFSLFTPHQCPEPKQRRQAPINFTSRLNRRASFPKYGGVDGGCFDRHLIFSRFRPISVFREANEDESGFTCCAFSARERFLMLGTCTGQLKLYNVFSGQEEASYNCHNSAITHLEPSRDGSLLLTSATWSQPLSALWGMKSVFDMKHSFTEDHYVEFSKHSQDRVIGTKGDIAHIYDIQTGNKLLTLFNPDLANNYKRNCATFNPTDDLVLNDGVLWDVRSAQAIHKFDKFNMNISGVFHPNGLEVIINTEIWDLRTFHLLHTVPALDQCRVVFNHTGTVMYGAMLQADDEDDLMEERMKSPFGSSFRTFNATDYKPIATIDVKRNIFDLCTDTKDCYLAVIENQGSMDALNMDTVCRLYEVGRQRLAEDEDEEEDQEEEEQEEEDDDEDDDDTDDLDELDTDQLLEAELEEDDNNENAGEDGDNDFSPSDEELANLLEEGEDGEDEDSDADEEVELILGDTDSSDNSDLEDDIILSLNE
Sequence of DCAF1-PROTAC-WDR5 ternary complex (Q9Y4B6 1077-1390, one chain of several): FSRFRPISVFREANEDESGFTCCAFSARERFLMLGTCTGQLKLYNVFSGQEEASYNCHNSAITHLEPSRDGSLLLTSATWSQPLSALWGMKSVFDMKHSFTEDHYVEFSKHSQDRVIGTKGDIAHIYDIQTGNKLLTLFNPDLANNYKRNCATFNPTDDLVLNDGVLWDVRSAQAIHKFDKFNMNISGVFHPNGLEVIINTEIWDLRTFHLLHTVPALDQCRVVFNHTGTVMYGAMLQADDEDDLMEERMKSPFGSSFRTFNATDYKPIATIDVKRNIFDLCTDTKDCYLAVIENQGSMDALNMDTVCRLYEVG
Sequence of DCAF1 (Q9Y4B6 1077-1390): as the sequence (Q9Y4B6 1077-1390, one chain of several) above

| SMILES | WDR5 protein level by Western blot (WDR5 [1]) | Dmax (endogenous WDR5) [%] | DC50 (endogenous WDR5; parental MV4-11 cells, 24 h) [nM] | Rmax [2] | Dmax (HiBiT-tagged WDR5 [3]) [%] | Dmax of exogenous HiBiT-WDR5 degradation (HiBiT-tagged WDR5 [3]) [%] | Kd (DCAF1) [nM] | Rmax (DCAF1) | koff (DCAF1) [s⁻¹] | kon (DCAF1) [M⁻¹ s⁻¹] | degradation of endogenous WDR5 in cells (endogenous WDR5; MV4-11 cells) | degradation of exogenous WDR5 in cells (HiBiT-tagged WDR5 [3]; MV4-11 cells) | HiBiT-WDR5 level reached on rescue by MG132 (HiBiT-tagged WDR5 [4]) | toxicity / viability after 24 h (ATPlite) [5] | Dmax of WDR5 degradation (WDR5 [6]) | Dmax of endogenous WDR5 degradation (endogenous WDR5; parental MV4-11 cells, 24 h) [%] |
| --- | --- | --- | --- | --- | --- | --- | --- | --- | --- | --- | --- | --- | --- | --- | --- | --- |
| C[C@@H]1CN(c2ccc(-c3cc(C(=O)NCCOCCOCCOCCOCCNC(=O)/C=C/c4[nH]cc(C(=O)N[C@@H](CC(N)=O)c5ccc(F)c(Cl)c5)c4-c4ccc(Cl)cc4F)ccc3F)cc2NC(=O)c2c[nH]c(=O)cc2C(F)(F)F)C[C@H](C)N1C [PROTAC 1] | moderate WDR5 degradation | 23.5 ± 11.4 | 186 ± 89 | 390 | 31.6 ± 5.5 | 32 | 46 ± 0.4 | 101 | 0.011 | 249000 |  |  |  |  |  |  |
| C[C@@H]1CN(c2ccc(-c3cc(C(=O)NCCCNC(=O)/C=C/c4[nH]cc(C(=O)N[C@@H](CC(N)=O)c5ccc(F)c(Cl)c5)c4-c4ccc(Cl)cc4F)ccc3F)cc2NC(=O)c2c[nH]c(=O)cc2C(F)(F)F)C[C@H](C)N1C [PROTAC 5] |  |  |  |  |  |  |  |  |  |  | did not degrade | did not degrade |  |  |  |  |
| CC(C)C[C@@H](C=O)NC(=O)[C@H](CC(C)C)NC(=O)[C@H](CC(C)C)NC(=O)OCc1ccccc1 [MG132] (Cbz-Leu-Leu-Leu-aldehyde) |  |  |  |  |  |  |  |  |  |  |  |  | approximately 100% |  |  |  |
| C[C@@H]1CN(c2ccc(-c3cc(C(=O)NCCOCCOCCOCCOCCNC(=O)Cn4cc(-c5[nH]cc(C(=O)N[C@@H](CC(N)=O)c6ccc(F)c(Cl)c6)c5-c5ccc(Cl)cc5F)cn4)ccc3F)cc2NC(=O)c2c[nH]c(=O)cc2C(F)(F)F)C[C@H](C)N1C [PROTAC 2] | moderate WDR5 degradation | 21.9 ± 11.1 | 135 ± 6 | 621 | 41.2 ± 2.5 |  | 38 ± 0.6 | 106 | 0.008 |  |  |  |  |  |  |  |
| C[C@@H]1CN(c2ccc(-c3cc(C(=O)NCCOCCOCCOCCOCCOCCOCCNC(=O)/C=C/c4[nH]cc(C(=O)N[C@@H](CC(N)=O)c5ccc(F)c(Cl)c5)c4-c4ccc(Cl)cc4F)ccc3F)cc2NC(=O)c2ccc(F)cc2C(F)(F)F)C[C@H](C)N1C [PROTAC 3] | moderate WDR5 degradation | 33.4 ± 6.8 | 93 ± 37 | 685 | 41.9 ± 4.5 |  | 48 ± 2.8 | 42 | 0.003 | 69600 |  |  |  |  |  |  |
| Cc1ncsc1-c1ccc([C@H](C)NC(=O)[C@@H]2C[C@@H](O)CN2C(=O)[C@@H](NC(=O)CNC(=O)c2ccc(F)c(-c3ccc(N4C[C@@H](C)N(C)[C@@H](C)C4)c(NC(=O)c4c[nH]c(=O)cc4C(F)(F)F)c3)c2)C(C)(C)C)cc1 [MS67, reference compound] | significantly decreased; also recorded: comparable levels of WDR5 degradation |  |  |  |  | 78.7 |  |  |  |  |  |  |  | displayed some toxicity | ~ 70% |  |
| C[C@@H]1CN(c2ccc(-c3cc(C(=O)NCCOCCOCCOCCOCCOCCOCCOCCOCCOCCNC(=O)/C=C/c4[nH]cc(C(=O)N[C@@H](CC(N)=O)c5ccc(F)c(Cl)c5)c4-c4ccc(Cl)cc4F)ccc3F)cc2NC(=O)c2c[nH]c(=O)cc2C(F)(F)F)C[C@H](C)N1C [PROTAC 4] | significantly decreased; also recorded: comparable levels of WDR5 degradation | 49.1 | 40 ± 24 | 818 | 73.8 ± 2.9 |  | 59 ± 0.9 | 102 | 0.014 | 239000 |  |  |  | did not show a significant toxicity |  | 49 ± 1.9 |
